{
  "source": "patent US8937056B2",
  "about": "“Multikinase inhibitors for use in the treatment of cancer” (Eisai R&D Management Co., Ltd., priority 2007, dated 2015)",
  "key": {"[1]": {"test_system": "human hematologic cancer cell lines", "assay": "Antiproliferative effects in hematologic cancer cell lines (MTT assay)", "format": "cell-based", "conditions": "cell lines derived from leukemia, or B-cells such non-Hodgkin's lymphoma, 96 h", "procedure": "A study was carried out to investigate anticancer activity of compounds 091 and 106 in a panel of human hematologic cancer cell lines in vitro. Antiproliferative effects of compounds 091 and 106 were evaluated in 7 human cancer cell lines representing several different cancer types of hematologic malignancy. […] Cell growth was assessed using the MTT assay."}, "MEK1": {"target": "MEK1 (Homo sapiens, UniProt Q02750)", "sequence (Q02750 whole entry)": "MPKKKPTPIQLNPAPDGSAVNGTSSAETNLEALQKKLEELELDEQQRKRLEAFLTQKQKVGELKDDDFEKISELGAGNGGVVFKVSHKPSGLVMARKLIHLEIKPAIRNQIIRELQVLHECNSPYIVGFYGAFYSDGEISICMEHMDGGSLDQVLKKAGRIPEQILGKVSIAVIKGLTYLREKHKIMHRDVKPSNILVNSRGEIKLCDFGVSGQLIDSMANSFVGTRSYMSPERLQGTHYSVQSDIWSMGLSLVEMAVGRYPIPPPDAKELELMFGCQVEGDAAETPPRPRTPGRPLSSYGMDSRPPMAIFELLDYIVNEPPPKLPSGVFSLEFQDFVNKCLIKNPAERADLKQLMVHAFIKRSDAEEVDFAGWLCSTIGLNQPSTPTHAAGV", "assay": "Biochemical MEK1 assay (ELISA, ERK2-coated plate)", "conditions": "1 μmol/L ATP", "procedure": "A biochemical MEK1 assay was carried out to investigate whether compounds of formula (I) or (II), e.g., compounds 029, 091, 106 and 114 are MEK1 inhibitors. Biochemical MEK1 inhibition of the compounds was assessed using an ELISA assay. All assays were performed in a 96 well format. A plate coated with ERK2, a substrate protein for MEK1 was used for biochemical MEK1 assay. In a final volume of 40 μL, MEK1 (25 ng) was incubated with 50 mmol/L HEPES, 20 mmol/L MgCl2, 4 mmol/L MnCl2, and 0.5 mmol/L Na3VO4 in the absence or presence of the test compounds. The reaction was initiated by the addition of 1 μmol/L ATP. After incubation for 40 minutes at 30° C., the reaction mixture was discarded and the plate was then washed 4 times with 0.05% Tween20/PBS. Each well was incubated with 100 μL of 1:4000 diluted phospho-ERK1/2 monoclonal antibody (Cell Signaling, MA) for 1.5 hours at room temperature. The antibody was then discarded and the plate was washed 6 times with 0.05% Tween20/PBS. Finally, 100 μL of 1:2000 diluted of HRP conjugated anti-mouse IgG antibody (Cell Signaling, MA) was added. After incubation for 90 minutes, this antibody was discarded and the plate was washed 8 times with 0.05% Tween20/PBS. Phosphorylated ERK2 was then visualized by peroxidase reaction, and read at 450 nm. FIG. 2A is a table depicting results from MEK1 assays."}, "[2]": {"test_system": "LOX human melanoma xenografts", "assay": "In vivo antitumor activity in LOX xenografts", "set-up": "species or system mice", "procedure": "A study was carried out to investigate anticancer activity of compounds 091 and 106 in human LOX BRAF mutated melanoma xenografts. The compounds were evaluated against subcutaneous-implanted LOX human melanoma xenografts in female athymic mice.\nThe human melanoma cell line, LOX which has B-RAF (V600E) mutation was transplanted subcutaneously into female nude mice. The experiment consisted of 8 mice per group on the first day of treatment. Compounds were independently administered intravenously for two weekly rounds of five daily injections (q1d×5) with a two-day rest period between the rounds. Compounds were administered in a vehicle volume of 0.1 mL/10 g of body weight.\nThe general health of the mice was monitored daily. Tumor dimensions and body weights were recorded twice a week starting on the first day of treatment. Tumor weights were calculated using the equation (l×w^2)/2, where 1 and w refer to the larger and smaller dimensions collected at each measurement. When the mean tumor volume reached 128 mm^3, vehicle (cremophor:ethanol:5% glucose; 1:1:8) or one of the test compounds (10, 20, 30, or 40 mg/kg) was administered to mice (8/group)."}, "MV-4-11 AML cells": {"test_system": "MV-4-11 AML cells", "assay": "MV-4-11 cell proliferation assay (CellTiter-Glo)", "format": "cell-based, human", "conditions": "96 h", "procedure": "A study was carried out to investigate the anticancer activity of compound 106 in a FLT-3 mutated (AML) cell line in vitro. The antiproliferative effects of compound 106 were determined in a cell proliferation assay using MV-4-11 AML cells. […] Luminescence was read on the EnVision 2102 Multilabel Counter (Perkin-Elmer/Wallac, Waltham, Mass.). The software, Graphpad Prism (ver. 4, San Diego, Calif.) was used for determination of IC50 values. The raw value for the untreated control represents an average from 4 wells."}, "[3]": {"test_system": "Cell lines which carried a B-RAF V600E mutation", "assay": "Cell growth inhibition in solid cancer cell lines (CellTiter-Glo or methylene blue)", "format": "cell-based", "conditions": "96 hours, B-RAF V600E mutated cell lines very sensitive", "procedure": "Compounds 091 and 106, were extensively tested in solid cancer cell lines (shown in FIG. 3 for 18 cell lines for compound 091 and 20 cell lines for compound 106). […] Cell growth was assessed using a CellTiter-Glo® Luminescent Cell Viability Assay (Promega) or a methylene blue assay."}, "[4]": {"test_system": "PANC-1 pancreatic cancer cells", "assay": "PANC-1 cell growth, alone or in combination with SN-38 (CellTiter-Glo)", "quoted_text": "To determine whether compounds 091 or 106 in combination with SN-38 would enhance the anticancer activity of chemotherapy due to MEKK1 inhibition, PANC-1 human pancreatic cancer cells were examined.\nAntiproliferative effects of SN-38 were evaluated in PANC-1 pancreatic cancer cells in combination with compound 091 or 106. Cultured human cancer cells were placed into 96-well plates and grown in the absence or continuous presence of 0.03-1000 nM SN-38 for 96 h with or without 1 μM of test compound. Cell growth was assessed using CellTiter-Glo® Luminescent Cell Viability Assay (Promega). IC50 values were determined as the concentration of a substance which inhibits cell growth by 50% compared to untreated cell populations."}, "Flt-3 receptor": {"test_system": "Flt-3 receptor", "assay": "Phosphorylation of Flt-3 receptor in MV-4-11 cells (immunoblot)", "format": "cell-based, human", "conditions": "24 h", "procedure": "A study was carried out to investigate the ability of compound 106 to inhibit phosphorylation of Flt-3 receptor in a FLT3-mutated (AML) cell line in vitro. MV-4-11 human acute myeloid leukemia (AML) cells (Catalog #CRL-9591, ATCC, Rockville, Md.), which carry an activation mutation of Flt-3, were plated into a […] flasks and incubated for 1 day. Then, compound 106 at concentrations of 0.1 nmol/L-300 nmol/L (or culture medium) were added to each flask and cultured for 24 h. The control dish received cultured medium alone. Cells lysates were prepared using ice cold lysis buffer. In order to detect phospho-Flt-3 protein, MV-4-11 cell lysate proteins were subjected to SDS-PAGE under reducing conditions and immunoblotted with an antibody against phospho-Flt-3 antibody (Catalog #3464, Cell Signaling Technology, Danvers, Mass.). Western blots were probed with secondary IRDye antibodies (LI-COR, Inc., Lincoln, Nebr.). Blotted proteins were visualized using the Odyssey infrared imaging system (LI-COR, Inc., Lincoln, Nebr.). Anti-actin antibody (Catalog #sc-8432, Santa Cruz Biotechnologies, Inc., Santa Cruz, Calif.) was used as a loading control."}, "[5]": {"test_system": "Colo205 human colon cancer xenografts", "assay": "In vivo antitumor activity in Colo205 xenografts", "set-up": "species or system mice", "conditions": "similar study with a different dosing schedule", "procedure": "A study was carried out to investigate anticancer activity of compounds 091 and 106 in human Colo205 BRAF mutated colon cancer xenografts. The compounds were evaluated against subcutaneous-implanted Colo205 human colon cancer xenografts in female athymic mice.\nThe human colon cancer cell line, Colo205 which has B-RAF (V600E) mutation was transplanted subcutaneously into female nude mice. The experiment consisted of 6 mice per group on the first day of treatment. The compound was administered intravenously for two weekly rounds of five daily injections (q1d×5) with a two-day rest period between the rounds. Compound 091 was administered in a vehicle volume of 0.1 mL/10 g of body weight.\nThe general health of the mice was monitored daily. Tumor dimensions and body weights were recorded twice a week starting on the first day of treatment. Tumor weights were calculated using the equation (l×w^2)/2, where 1 and w refer to the larger and smaller dimensions collected at each measurement. When the mean tumor volume reached 140 mm^3, vehicle (cremophor:ethanol:5% glucose; 1:1:8) or the test compound (30 mg/kg) was administered to mice (6/group)."}, "Map/Erk kinase (MEK)": {"test_system": "Map/Erk kinase (MEK)", "conditions": "cited from earlier work"}},
  "note": "Like-named read-outs stand apart in the source and are kept apart here.",
  "data": [
    {"smiles": "CCNc1cc(O)c2c(c1)/C=C/C[C@H](O)[C@H](O)C(=O)/C=C\\[C@@H](C)[C@H](C)OC2=O", "note": "[Compound 106]", "values": [
      {"measurement": "sensitivity of cell growth", "setting": "[1]", "value": "sensitive"},
      {"measurement": "MEK1 inhibitory activity", "setting": "MEK1", "value": "low nM activity"},
      {"measurement": "mice tumor free at the end of study", "setting": "[2]; 10 mg/kg", "value": "5 out of 8"},
      {"measurement": "mice tumor free at the end of study", "setting": "[2]; 20 mg/kg", "value": "8 out of 8"},
      {"measurement": "mice tumor free at the end of study", "setting": "[2]; 40 mg/kg", "value": "8 out of 8"},
      {"measurement": "anticancer activity", "setting": "[2]; three dosages, 10, 20, and 40 mg/kg/dose", "value": "statistically significant anticancer activity"},
      {"measurement": "IC50, antiproliferative activity", "setting": "MV-4-11 AML cells", "value": "low-nmol/L"},
      {"measurement": "cell growth inhibition, concentration range of sensitivity", "setting": "[3]", "value": "low-nM or sub-μM"},
      {"measurement": "effect on PANC-1 cancer cell growth, compound alone", "setting": "[4]; 1 μM alone, separate experiments (data not shown)", "value": "did not affect"},
      {"measurement": "constitutive phosphorylation of Flt-3 receptor", "setting": "Flt-3 receptor; 10 nmol/L", "value": "completely inhibited"},
      {"measurement": "protein level of phospho-Flt-3", "setting": "Flt-3 receptor; 0.1-300 nmol/L, concentration dependent", "value": "decreased"},
      {"measurement": "tumor regression from the first day of treatment", "setting": "[5]", "value": 70, "unit": "%"}
    ]},
    {"smiles": "COc1cc(O)c2c(c1)/C=C/C[C@H](O)[C@H](O)C(=O)/C=C\\C[C@H](C)OC2=O", "note": "[Compound F152]", "values": [
      {"measurement": "inhibition of MEK", "setting": "Map/Erk kinase (MEK)", "value": "inhibit"}
    ]},
    {"smiles": "CCc1c2c(nc3ccc(O)cc13)-c1cc3c(c(=O)n1C2)COC(=O)[C@]3(O)CC", "note": "[SN-38, reference compound]", "values": [
      {"measurement": "IC50", "setting": "[4]; read-out: IC50 for cell growth inhibition in combination setting, SN-38 with 1 μM of compound 091 or compound 106, 96 h", "value": 16.2, "unit": "nM"},
      {"measurement": "IC50", "setting": "[4]; read-out: IC50 for cell growth inhibition, SN-38 alone, 96 h", "value": 82.5, "unit": "nM"}
    ]}
  ]
}
